{"source": "patent US11274076B2", "about": "“Process for preparing 1, 2-benzenedimethanol compound” (GOWAN COMPANY, L.L.C., priority 2016, dated 2022)"}
{"test_system": "Pythium graminicola", "assay": "Test 4: control effect against damping-off disease of rice by Pythium (soil irrigation)", "assay_type": "in vivo", "details": "336 h, 1000 ppm test suspension, 2.5 ml soil irrigation, rice (Koshihikari) in contaminated soil, from degree of disease development", "units": {"pest or weed control at 1000 ppm": "%"}}
{"compound": "CS(=O)(=O)Oc1cccc2c1COC(c1csc(C3CCN(C(=O)Cn4nc(C(Cl)Cl)cc4C(Cl)Cl)CC3)n1)OC2", "note": "(stereo not shown) [Compound 2-38, 4-[4-(6-methylsulfonyloxy-1,5-dihydro-3H-2,4-benzodioxepin-3-yl)-2-thiazolyl]-1-[2-[3,5-bis(dichloromethyl)-1H-pyrazol-1-yl]acetyl]piperidine]", "pest or weed control at 1000 ppm": "≥ 90"}
{"compound": "CCCCS(=O)(=O)Oc1cccc2c1COC(c1csc(C3CCN(C(=O)Cc4cc(C)ccc4C)CC3)n1)OC2", "note": "(stereo not shown) [Compound 3-4, 4-[4-(6-butylsulfonyloxy-1,5-dihydro-3H-2,4-benzodioxepin-3-yl)-2-thiazolyl]-1-[2-(2,5-dimethylphenyl)acetyl]piperidine]", "pest or weed control at 1000 ppm": "≥ 90"}
{"compound": "CS(=O)(=O)Oc1c(F)ccc2c1COC(c1csc(C3CCN(C(=O)Cn4nc(C(F)F)cc4C(F)F)CC3)n1)OC2", "note": "(stereo not shown) [Compound 2-49, 4-[4-(7-fluoro-6-methylsulfonyloxy-1,5-dihydro-3H-2,4-benzodioxepin-3-yl)-2-thiazolyl]-1-[2-[3,5-bis(difluoromethyl)-1H-pyrazol-1-yl]acetyl]piperidine]", "pest or weed control at 1000 ppm": "≥ 90"}
{"compound": "CS(=O)(=O)Oc1ccc(I)c2c1COC(c1csc(C3CCN(C(=O)Cn4nc(C(F)(F)F)cc4C(F)(F)F)CC3)n1)OC2", "note": "(stereo not shown) [Compound 2-46, 4-[4-(6-iodo-9-methylsulfonyloxy-1,5-dihydro-3H-2,4-benzodioxepin-3-yl)-2-thiazolyl]-1-[2-[3,5-bis(trifluoromethyl)-1H-pyrazol-1-yl]acetyl]piperidine]", "pest or weed control at 1000 ppm": "≥ 90"}
{"compound": "CS(=O)(=O)Oc1c(F)ccc2c1COC(c1csc(C3CCN(C(=O)Cn4nc(C(F)(F)F)cc4C(F)(F)F)CC3)n1)OC2", "note": "(stereo not shown) [Compound 2-48, 4-[4-(7-fluoro-6-methylsulfonyloxy-1,5-dihydro-3H-2,4-benzodioxepin-3-yl)-2-thiazolyl]-1-[2-[3,5-bis(trifluoromethyl)-1H-pyrazol-1-yl]acetyl]piperidine]", "pest or weed control at 1000 ppm": "≥ 90"}
{"compound": "CS(=O)(=O)Oc1ccc(Br)c2c1COC(c1csc(C3CCN(C(=O)Cn4nc(C(F)(F)F)cc4C(F)(F)F)CC3)n1)OC2", "note": "(stereo not shown) [Compound 2-42, 4-[4-(6-bromo-9-methylsulfonyloxy-1,5-dihydro-3H-2,4-benzodioxepin-3-yl)-2-thiazolyl]-1-[2-[3,5-bis(trifluoromethyl)-1H-pyrazol-1-yl]acetyl]piperidine]", "pest or weed control at 1000 ppm": "≥ 90"}
{"compound": "CS(=O)(=O)Oc1ccc(I)c2c1COC(c1csc(C3CCN(C(=O)Cc4cc(Cl)ccc4Cl)CC3)n1)OC2", "note": "(stereo not shown) [Compound 3-20, 4-[4-(6-iodo-9-methylsulfonyloxy-1,5-dihydro-3H-2,4-benzodioxepin-3-yl)-2-thiazolyl]-1-[2-(2,5-dichlorophenyl)acetyl]piperidine]", "pest or weed control at 1000 ppm": "≥ 90"}
{"compound": "CS(=O)(=O)Oc1ccc(OS(C)(=O)=O)c2c1COC(c1csc(C3CCN(C(=O)Cn4nc(C(F)(F)F)cc4C(F)(F)F)CC3)n1)OC2", "note": "[Compound 2-54, 4-[4-[6,9-bis(methylsulfonyloxy)-1,5-dihydro-3H-2,4-benzodioxepin-3-yl]-2-thiazolyl]-1-[2-[3,5-bis(trifluoromethyl)-1H-pyrazol-1-yl]acetyl]piperidine]", "pest or weed control at 1000 ppm": "≥ 90"}
{"compound": "COc1ccc(OS(C)(=O)=O)c2c1COC(c1csc(C3CCN(C(=O)Cn4nc(Cl)cc4Cl)CC3)n1)OC2", "note": "(stereo not shown) [Compound 2-33, 4-[4-(6-methoxy-9-methylsulfonyloxy-1,5-dihydro-3H-2,4-benzodioxepin-3-yl)-2-thiazolyl]-1-[2-(3,5-dichloro-1H-pyrazol-1-yl)acetyl]piperidine]", "pest or weed control at 1000 ppm": "≥ 90"}
{"compound": "COc1ccc(OS(C)(=O)=O)c2c1COC(c1csc(C3CCN(C(=O)Cn4nc(C)cc4C)CC3)n1)OC2", "note": "(stereo not shown) [Compound 2-34, 4-[4-(6-methoxy-9-methylsulfonyloxy-1,5-dihydro-3H-2,4-benzodioxepin-3-yl)-2-thiazolyl]-1-[2-(3,5-dimethyl-1H-pyrazol-1-yl)acetyl]piperidine]", "pest or weed control at 1000 ppm": "≥ 90"}
{"compound": "Cc1ccc(C)c(CC(=O)N2CCC(c3nc(C4OCc5c(OS(C)(=O)=O)cc(C)c(C)c5CO4)cs3)CC2)c1", "note": "(stereo not shown) [Compound 3-9, 4-[4-(6,7-dimethyl-9-methylsulfonyloxy-1,5-dihydro-3H-2,4-benzodioxepin-3-yl)-2-thiazolyl]-1-[2-(2,5-dimethylphenyl)acetyl]piperidine]", "pest or weed control at 1000 ppm": "≥ 90"}
{"compound": "CS(=O)(=O)Oc1c(F)ccc2c1COC(c1csc(C3CCN(C(=O)Cc4cc(Cl)ccc4Cl)CC3)n1)OC2", "note": "(stereo not shown) [Compound 3-19, 4-[4-(7-fluoro-6-methylsulfonyloxy-1,5-dihydro-3H-2,4-benzodioxepin-3-yl)-2-thiazolyl]-1-[2-(2,5-dichlorophenyl)acetyl]piperidine]", "pest or weed control at 1000 ppm": "≥ 90"}
{"compound": "CS(=O)(=O)Oc1cccc2c1COC(c1csc(C3CCN(C(=O)Cc4cc(C(F)(F)F)ccc4C(F)(F)F)CC3)n1)OC2", "note": "(stereo not shown) [Compound 3-8, 4-[4-(6-methylsulfonyloxy-1,5-dihydro-3H-2,4-benzodioxepin-3-yl)-2-thiazolyl]-1-[2-[2,5-bis(trifluoromethyl)phenyl]acetyl]piperidine]", "pest or weed control at 1000 ppm": "≥ 90"}
